Assay results from article PMC5834442, “Identifying inhibitors of the Leishmania inositol phosphorylceramide synthase with antiprotozoal activity using a yeast-based assay and ultra-high throughput screening platform” (Scientific Reports, 2018).
Entries after “also recorded” stand apart in the source; their conditions may differ. Like-named read-outs stand apart in the source and are kept apart here.

Tests used:
[1] = tested on: intra-macrophage Leishmania donovani amastigotes; test: Intramacrophage Leishmania donovani assay (high content imaging); assay type: cell-based; details: for IC50: Leishmania donovani
[2] = biological target: T1, LmjFIPCS (Leishmania major, UniProt E9AFX2); test: Biochemical LmjFIPCS assay with CHAPS-washed microsomal membranes; details: for IC50: read-out: pIC50 against LmjFIPCS in vitro (converted)
T1 construct: The complete open reading frames of LmjFIPCS and AUR1p was amplified from genomic DNA; made in house
T1 sequence (E9AFX2 whole entry): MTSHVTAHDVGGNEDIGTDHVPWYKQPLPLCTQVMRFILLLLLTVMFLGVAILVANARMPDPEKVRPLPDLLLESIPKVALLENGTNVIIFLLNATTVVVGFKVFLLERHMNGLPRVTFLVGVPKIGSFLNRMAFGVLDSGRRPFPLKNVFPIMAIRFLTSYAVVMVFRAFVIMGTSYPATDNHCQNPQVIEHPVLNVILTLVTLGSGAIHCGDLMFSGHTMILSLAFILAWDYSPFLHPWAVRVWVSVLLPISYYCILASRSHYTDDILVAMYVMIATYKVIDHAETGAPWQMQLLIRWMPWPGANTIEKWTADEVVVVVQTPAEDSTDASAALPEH
Procedure: Utilizing the availability of an in-house designed and validated biochemical assay for LmjFIPCS[19],[22], following re-synthesis in the free-base form (Aptuit, Verona, Italy) the two benzazepane hits were biochemically analyzed in a dose response assay (8 compound concentrations between 100 μM and 46 nM; Fig. 5). […].
Microsomal material was prepared and CHAPS washed from α ade^−.lys^−.leu^−.Δaur1^−.pESC-LEU_ LmjFIPCS as previously described[19],[22]. Briefly, each compound at the desired concentration was incubated, in at least triplicate, in 96-well plates (Corning) in phosphate buffer (71.4 mM, pH 7.0) with PI (100 µM, final concentration, Avanti Polar Lipids), CHAPS (600 µM, Sigma-Aldrich) and CHAPS-washed microsomal membranes (0.6 U enzyme per reaction) for 15 minutes at 30 °C. NBD-C6-ceramide (5 µM; ThermoFisher) was added, final volume of 40 µl per well, and the plates incubated at 30 °C for a further 25 minutes. […]. Analyses were carried out using GraphPad Prism 7.

[3] = tested on: L. major (MHOM/IL/81/Friedlin) wild type; test: L. major axenic cell assay (alamarBlue), wild type; assay type: cell-based; details: Leishmania major; −logIC50 M; 72 hours; read-out: pIC50 against wild type Leishmania major (converted)
Description: (§1) However, whilst compound 1 was antiprotozoal and a potent IPC synthase inhibitor, it was unclear whether the mode of action was on-target. To analyze this further, the in-house availability of a sphingolipid mutant L. major (Δlcb2) was exploited. This line[24] lacks serine palmitoyltransferase activity, and whilst LmjFIPCS is still present it is redundant in the absence of in situ substrate. […] […]. Therefore, it is likely that off-target activity has a role in the antileishmanial activity of this benzazepane.
(§2) From a previously described protocol, L. major (MHOM/IL/81/Friedlin, wild type and ΔLCB2 mutant)[24] were added to 96-well plates (Corning) at 1 × 10^4 ml^−1 in growth media with appropriate concentrations of compounds and controls (vehicle and assay media alone, with the robustness of the platform indicated by Z’ values > 0.5)[29] in 100 µl. […]. Analyses were carried out using GraphPad Prism 7.

[4] = tested on: L. major Δlcb2 mutant; test: L. major axenic cell assay (alamarBlue), sphingolipid mutant Δlcb2; assay type: cell-based; details: Leishmania major, 72 h, read-out: pIC50 against L. major Δlcb2 mutant (converted)
Description: as §1, §2

[5] = biological target: T2, in cellulo LmjFIPCS (Leishmania major, UniProt E9AFX2); test: In cellulo IPC synthase assay (BODIPY FL C5-ceramide incorporation into IPC, HPTLC); assay type: cell-based; details: L. major ΔLCB2, 10 μM of compound, compared with compound 1
T2 construct: endogenous in cells; host or cells: L. major (MHOM/IL/81/Friedlin) Δlcb2 mutant
T2 sequence (E9AFX2 whole entry): as above
Procedure: Figure 7 In cellulo activity against LmjFIPCS. […] L. major ΔLCB2 treated with 10 μM of compound prior to metabolic labelling with BODIPY FL C5-ceramide. Inhibition of the incorporation of label into IPC was measured following HPTLC in comparison with a control (vehicle treated). […]. P = 0.006 in students’ t-test indicating the difference is significant (**≤ 0.01).
The L. major Δlcb2 mutant, maintained in Schneider’s media (Sigma-Aldrich) with 15% sera (ThermoFisher), were washed and 200 µl, at 1 × 10^7 ml^−1, incubated in serum free media for 60 minutes at 26 °C before the addition of 10 µM of the compounds, in at least triplicate, and further incubation for 18 hours. Subsequently, the reaction was initiated by the addition of BODIPY FL C5-ceramide complexed to BSA (1.25 µl of 0.5 mM, ThermoFisher). Following further incubation at 26 °C for 1 hour, the lipids were extracted by phase separation in chloroform:methanol:water (10:10:3, 200 µl) and fractionated on HTPLC plates, as previously. The fluorescence was read at Ex475/Em520 using a Fuji FLA-3000 plate reader and AIDA Image Analyser software (version 3.52).

[6] = tested on: L. donovani (MHOM/SD/62/1S-CL2D, LdBOB) axenic amastigotes; test: Leishmania donovani axenic amastigote dose response assay (resazurin); assay type: cell-based
[7] = tested on: HepG2 cells; test: Mammalian cell cytotoxicity assay (CellTiter-Glo); assay type: cell-based, human; details: for IC50: Homo sapiens, -logIC50 mol against HepG2, read-out: PIC50 HepG2 (converted)
[8] = tested on: THP-1 macrophages; test: Host cell toxicity in the intramacrophage assay; assay type: cell-based, human; details: for IC50: Homo sapiens, THP-1 host cells in intramacrophage assay, read-out: pIC50 THP-1 (converted)
[9] = −logIC50 M, biochemical assay, at least 3 independent experiments
[10] = −logIC50 M, 72 hours, read-out: pIC50 against axenic L. donovani amastigotes (converted)
[11] = −logIC50 M, L. donovani infected THP-1 macrophages, 96 hours, read-out: pIC50 against intra-macrophage L. donovani amastigotes (converted)
[12] = -logIC50 mol against L. donovani (LdBOB) axenic amastigotes, read-out: pIC50 Axenic (converted)
[13] = intramacrophage L. donovani, read-out: pIC50 InMac (converted)
[14] = selectivity: pIC50 InMac minus pIC50 THP-1

For O=S(=O)(c1ccc2c(c1)CCN(Cc1ccc(F)cc1)CC2)n1ccc2c(F)cccc21 [compound 7], the “pIC50 against intra-macrophage L. donovani amastigotes” value ([1]; −logIC50 M, L. donovani infected THP-1 macrophages, 96 hours) was “lost”, the “maximal inhibition of LmjFIPCS in vitro” value ([2]; even at higher concentrations) was at most 60% and the IC50 [2, 9] was 0.0631 µM. The IC50 [3] was 3.16 µM, the IC50 [4] was over 10 µM and the “in cellulo inhibition of IPC synthase activity (incorporation of BODIPY FL C5-ceramide into IPC)” value [5] was “considerably greater in cellulo inhibition of IPC synthase activity than compound 1; also recorded: greater activity against in cellulo LmjFIPCS than compound 1”.
Work on O=S(=O)(c1ccc2c(c1)CCN(Cc1cccnc1)CC2)n1ccc2c(F)cccc21 [compound 2] yielded an IC50 [6, 10] of 0.398 µM, an IC50 [1, 11] of 2 µM and an IC50 [2, 9] of 6.31 µM.
Work on O=S(=O)(c1ccc2c(c1)CCN(Cc1ccc(F)cc1)CC2)n1cccc1 [compound 1] yielded an IC50 [6, 10] of 0.0251 µM, an IC50 [1, 11] of 3.16 µM and an IC50 [2, 9] of 0.158 µM. It also gave an IC50 [3] of 3.16 µM and an IC50 [4] of 3.16 µM.
With O=S(=O)(c1ccc2c(c1)CCN(Cc1cccnc1)CC2)n1cccc1 [compound 6] the “pIC50 against LmjFIPCS in vitro” value [2, 9] was “lost activity”.
With O=C(O)C(F)(F)F.O=S(=O)(c1ccc2c(c1)CCN(Cc1cccnc1)CC2)n1ccc2c(F)cccc21 [CS100462-069A14B4] the IC50 [6, 12] was 0.447 µM, the “pSI v HepG2” value [7] was 2.07 and the IC50 [7] was 52.5 µM. The IC50 [1, 13] was 2 µM, the IC50 [8] was 33.9 µM and the “pSI v THP-1” value [8, 14] was 1.23.
CCCCCNC(=O)c1c(O)c2ccccc2[nH]c1=O [ST/243992] was tested, and the IC50 [6, 12] was 2.09 µM, the IC50 [7] was over 100 µM and the “pSI v HepG2” value ([7]; selectivity: pIC50 axenic minus pIC50 HepG2) was 1.68. For the same compound, the IC50 [1, 13] was over 50.1 µM, the IC50 [8] was over 50.1 µM and the “pSI v THP-1” value [8, 14] was 0.00.
In the case of NC(=O)c1ccsc1NC(=O)c1ccc([N+](=O)[O-])s1 [ST/918837], the IC50 [6, 12] is reported as 0.331 µM, the IC50 [7] is reported as over 100 µM and the “pSI v HepG2” value ([7]; selectivity, pIC50 axenic minus pIC50 HepG2) is reported as 2.48. The IC50 ([1]; intramacrophage L. donovani amastigotes, read-out: pIC50 InMac (converted)) was 2.04 µM, the IC50 [8] was 26.9 µM and the “pSI v THP-1” value ([8]; selectivity, pIC50 InMac minus pIC50 THP-1) was 1.12.
